# Data taken from patent EP4722195A1, “PH-SENSITIVE CATIONIC LIPID AND LIPID NANOPARTICLES” (National University Corporation Hokkaido University, priority 2023, dated 2024).
# Tests used:
# [1] = tested on: spleen; test: Fluc activity in the spleen of mice administered Fluc mRNA-loaded lipid nanoparticles; assay type: in vivo, BALB/c mice; conditions: Example 22, Fig. 1; TxT/DSPC/chol/PEG-DMG=50/15/35/1.5 (mol%); 0.1 mg mRNA/kg intravenous; six hours after administration; comparison among TxT lipids
# Description: (§1) Lipid nanoparticles were administered to mice by intravenous injection into the tail vein using a 27G needle. Unless otherwise specified, BALB/c mice (4 to 5 weeks old, female) were used.
# (§2) First, BALB/c mice (female, 4 weeks old) were intravenously injected with lipid nanoparticles encapsulating Fluc mRNA (Fluc mRNA-loaded lipid nanoparticles) at a dose of 0.1 mg mRNA/kg. Six hours after intravenous injection, the mice were euthanized, each tissue was collected, frozen in liquid nitrogen, and stored at -80°C. The tissues were homogenized in passive lysis buffer (manufactured by Promega) using a bead-type cell disruptor (Micro Smash MS-100R, manufactured by TOMY Seiko). Tissue debris was removed by centrifugation, and the supernatant was collected. Fluc activity in the supernatant was measured using the Luciferase Assay System (E1500, manufactured by Promega) according to the manufacturer's protocol. Luminescence was measured using a luminometer (Luminescencer-PSN, manufactured by ATTO). Protein concentration was determined using a commercially available assay kit (BCA Protein Assay Kit, manufactured by Pierce). Fluc activity was expressed as relative light units (RLU) per mg of protein. […]
# [2] = tested on: transthyretin (TTR); test: TTR-targeted genome editing in mice, serum TTR (ELISA); assay type: in vivo, Balb/c mice; conditions: for TTR knockout activity: serum TTR one week after administration, N = 3
# Description: Specifically, an RNA solution was first prepared to contain Cas9-mRNA (TriLink, SmoU-modified) and gRNA targeting transthyretin (TTR) at a mass ratio of 1:2 (N/P = 6.0). Using this RNA solution, in the same manner as Example 27, lipid nanoparticles encapsulating Cas9-mRNA and TTR-gRNA (SEQ ID NO: 1) and having a composition of TxT/DSPC/chol/PEG-DMG = 50/3/47/1.5 (mol%) were prepared (lipid nanoparticles for TTR-targeted genome editing). […]
# Subsequently, each of the prepared lipid nanoparticles for TTR-targeted genome editing was administered via tail vein injection to female Balb/c mice (4 weeks old) at a dose of 1.5 mg Cas9 mRNA/kg. […] The collected blood was allowed to stand at room temperature for 1 hour, followed by centrifugation at 25°C, 1,000 × g for 15 minutes. The supernatant was collected to obtain serum. The TTR concentration in the serum was measured using a commercially available ELISA kit (Prealbumin ELISA Kit Mouse, Aviva Systems Biology). Calibration samples were prepared by serial dilution from 500 ng/mL to obtain solutions of 250, 125, 62.5, 31.25, and 15.63 ng/mL, each in a volume of 300 µL. Serum samples were diluted 10,000-fold. A volume of 100 µL of each calibration sample and serum sample was applied to the plate and incubated at 25°C for 30 minutes. The wells were washed four times, and 100 µL of Enzyme-Antibody Conjugate was added to each well. The plate was shielded from light using aluminum foil and incubated at 25°C for 20 minutes. After another four washes, 100 µL of TMB Substrate Solution (Aviva Systems Biology) was added to each well, and the plate was shielded from light using aluminum foil and incubated at 25°C for 10 minutes. Finally, 100 µL of Stop Solution (Aviva Systems Biology) was added, and absorbance at 450 nm was measured using a spectrofluorometer (Varioskan Lux, Thermo Fisher Scientific).
# Subsequently, the lipid nanoparticles for TTR-targeted genome editing were administered to mice and serum TTR levels (µg/mL) were measured (N = 3) in the same manner as in Example 32, except that a dose of Cas9-mRNA was adjusted to 0.1, 0.3, and 1.0 mg/kg. In the figure, "NT" indicates the measurement result of serum from mice that were not administered lipid nanoparticles.
# [3] = tested on: hEPO; test: hEPO in the serum of mice administered hEPO mRNA-loaded lipid nanoparticles (ELISA); assay type: in vivo; conditions: Example 29, Fig. 8, 6, 24, and 48 hours after administration, N = 3
# Description: Subsequently, each hEPO mRNA-loaded lipid nanoparticle was administered to mice, and blood samples were collected from the tail vein at 6, 24, and 48 hours after administration (N = 3). The collected blood was allowed to stand at room temperature for 90 minutes, followed by centrifugation at 25°C, 1,000 x g for 15 minutes. The supernatant was collected to obtain serum. The hEPO activity in the serum was measured using a commercially available ELISA kit (Human EPO ELISA Kit, Invitrogen). Calibration samples were prepared by serial dilution from 100 mIU/mL to obtain solutions of […], each in a volume of 450 µL. Serum samples were diluted 10- to 10,000-fold to fall within the calibration range. A volume of 100 µL of each calibration sample and serum sample was applied to the plate, followed by the addition of […] of Biotin-Conjugate and incubation at 18 to 25°C for 1 hour. The wells were washed six times, and 100 µL of Streptavidin-HRP was added to each well and incubated at 18 to 25°C for 15 minutes. After another six washes, 100 µL of TMB Substrate Solution was added to each well, and the plate was shielded from light using aluminum foil and incubated at 18 to 25°C for 10 minutes. Finally, 100 µL of Stop Solution was added, and absorbance at 450 nm was measured using a spectrofluorometer (Varioskan Lux, Thermo Fisher Scientific).
# [4] = tested on: liver; test: Fluc activity in the liver of mice administered Fluc mRNA-loaded lipid nanoparticles; assay type: in vivo, BALB/c mice; conditions: for Fluc activity in the liver at 6, 24, and 48 hours after administration: Example 28, Fig. 7, TxT-5-5A12β versus TxT-5-5A14 nanoparticles, 50/3/47/1.5 (mol%)
# Description: as §1
# First, BALB/c mice (female, 4 weeks old) were intravenously injected with lipid nanoparticles encapsulating Fluc mRNA (Fluc mRNA-loaded lipid nanoparticles) at a dose of 0.1 mg mRNA/kg. Six hours after intravenous injection, the mice were euthanized, each tissue was collected, frozen in liquid nitrogen, and stored at -80°C. The tissues were homogenized in passive lysis buffer (manufactured by Promega) using a bead-type cell disruptor (Micro Smash MS-100R, manufactured by TOMY Seiko). Tissue debris was removed by centrifugation, and the supernatant was collected. Fluc activity in the supernatant was measured using the Luciferase Assay System (E1500, manufactured by Promega) according to the manufacturer's protocol. Luminescence was measured using a luminometer (Luminescencer-PSN, manufactured by ATTO). Protein concentration was determined using a commercially available assay kit (BCA Protein Assay Kit, manufactured by Pierce). Fluc activity was expressed as relative light units (RLU) per mg of protein.
# Subsequently, lipid nanoparticles encapsulating Fluc mRNA prepared using TxT-5-5A10, TxT-5-5A12, TxT-5-5A12β, TxT-5-5A14, and TxT-5-5A16 were administered to mice to evaluate luciferase expression levels (Fluc activity) in various tissues. Specifically, each Fluc mRNA-loaded lipid nanoparticle was administered to Balb/c mice at a dose of 0.1 mg mRNA/kg. Six hours after administration, the mice were euthanized, and their organs were collected to measure Fluc activity (RLU/mg protein) (N = 2 or 4).
# [5] = tested on: various tissues; test: Fluc activity in various tissues of mice administered Fluc mRNA-loaded lipid nanoparticles; assay type: in vivo, BALB/c mice; conditions: Example 23, Figs. 2B to 2E; TxT-5-5A16/DSPC/chol/PEG-DMG=50/X/50-X/1.5 (mol%); 0.1 mg mRNA/kg; six hours
# Description: as §1, §2
# [6] = Example 32, Fig. 11, 1.5 mg Cas9 mRNA/kg tail vein
# [7] = Example 23, Fig. 2A, TxT-5-5A16/DSPC/chol/PEG-DMG=50/X/50-X/1.5 (mol%), 0.1 mg mRNA/kg, six hours
SMILES,Fluc activity in the spleen [1],"TTR knockout activity [2, 6]",hEPO concentrations in serum compared to lipid nanoparticles comprising SM-102 [3],"Fluc activity in the liver at 6, 24, and 48 hours after administration ([4]; N = 3)","Effect of DSPC content on Fluc activity in the spleen, kidney, lung, and heart [5]","Fluc activity in the liver ([4]; Example 22, Fig. 1, TxT/DSPC/chol/PEG-DMG=50/15/35/1.5 (mol%), 0.1 mg mRNA/kg intravenous, six hours after administration, comparison among TxT lipids)","Effect of DSPC content on Fluc activity in the liver [4, 7]","Fluc activity in the liver, 3 mol% DSPC compared to 15 mol% DSPC [4, 7]","TTR knockout efficiency versus dose ([2]; Example 33, Fig. 12, 0.1, 0.3, and 1.0 mg/kg)","TTR knockout activity ([2]; Example 33, Fig. 12, dose of 0.3 mg RNA/kg)","Fluc activity (liver), comparison among TxT lipids ([4]; Example 24, Fig. 3A, TxT/DSPC/chol/PEG-DMG=50/3/47/1.5 (mol%), 0.1 mg mRNA/kg, six hours)","Fluc activity in the liver compared to lipid nanoparticles comprising other cationic lipids (SM-102, ALC-0315, MC3) ([4]; Example 25, Fig. 4, TxT-5-5A14 50/3/47/1.5, comparators 50/10/40/1.5 (mol%), 0.1 mg mRNA/kg, six hours, N = 3)"
"CCCCCCC(CCCC)CNC(=O)CCCC(=O)OCC(COC(=O)CCCC(=O)NCC(CCCC)CCCCCC)(COC(=O)CCCC(=O)NCC(CCCC)CCCCCC)NC(=O)CCN1CCCCC1 (stereo not drawn) [TxT-5-5A12β, 2-(((5-((2-butyloctyl)amino)-5-oxopentanoyl)oxy)methyl)-2-(3-(piperidin-1-yl)propanamido)propane-1,3-diyl bis(5-((2-butyloctyl)amino)-5-oxopentanoate)]",highest Fluc activity in the spleen,exceeding 85%,clearly higher hEPO concentrations,comparable levels of gene expression at all time points,–,–,–,–,–,–,–,–
"CCCCCCCCN(CCCCCCCC)C(=O)CCCC(=O)OCC(COC(=O)CCCC(=O)N(CCCCCCCC)CCCCCCCC)(COC(=O)CCCC(=O)N(CCCCCCCC)CCCCCCCC)NC(=O)CCN1CCCCC1 [TxT-5-5A16, 2-(((5-(dioctylamino)-5-oxopentanoyl)oxy)methyl)-2-(3-(piperidin-1-yl)propanamido)propane-1,3-diyl bis(5-(dioctylamino)-5-oxopentanoate)]",–,–,–,–,no effect of DSPC content on Fluc activity was observed,highest Fluc activity in the liver,Fluc activity increased as the DSPC content decreased,approximately 10 times,–,–,–,–
"CCCCCCCN(CCCCCCC)C(=O)CCCC(=O)OCC(COC(=O)CCCC(=O)N(CCCCCCC)CCCCCCC)(COC(=O)CCCC(=O)N(CCCCCCC)CCCCCCC)NC(=O)CCN1CCCCC1 [TxT-5-5A14, 2-(((5-(diheptylamino)-5-oxopentanoyl)oxy)methyl)-2-(3-(piperidin-1-yl)propanamido)propane-1,3-diyl bis(5-(diheptylamino)-5-oxopentanoate)]",–,exceeding 85%,clearly higher hEPO concentrations,comparable levels of gene expression at all time points,–,–,–,–,dose-dependent increase in TTR knockout efficiency,no less than 60%,highest Fluc activity,significantly higher Fluc activity
